The source of these data is ChEMBL document CHEMBL5634154, “Drug repurposing and structure-based discovery of new PDE4 and PDE5 inhibitors” (Eur J Med Chem, 2023).

In assay [1] the target is 3',5'-cyclic-AMP phosphodiesterase 4D (Homo sapiens, UniProt Q08499). The experiment in a line: Inhibition of his-tagged recombinant human PDE4D catalytic domain (T86 to S413 residues) expressed in Escherichia coli BL21(DE3) using [3H]-cAMP as substrate incubated for 10 mins by SPA assay.
Assay [2] has as its target T1, Dual specificity calcium/calmodulin-dependent 3',5'-cyclic nucleotide phosphodiesterase 1A (Homo sapiens, UniProt P54750). As to the kind of experiment: Inhibition of full-length recombinant human PDE1A using [3H]-cGMP as substrate incubated for 10 mins by SPA assay.
The target in assay [3] is T2, cGMP-dependent 3',5'-cyclic phosphodiesterase (Homo sapiens, UniProt O00408). The experiment in a line: Inhibition of full-length recombinant human PDE2A using [3H]-cGMP as substrate incubated for 10 mins by SPA assay.
Assay [4] deals with cGMP-inhibited 3',5'-cyclic phosphodiesterase 3A (Homo sapiens, UniProt Q14432). As to the kind of experiment: Inhibition of full-length recombinant human PDE3A using [3H]-cGMP as substrate incubated for 10 mins by SPA assay.
cGMP-inhibited 3',5'-cyclic phosphodiesterase 3A, sequence (Q14432 whole entry, the tested form may be a part): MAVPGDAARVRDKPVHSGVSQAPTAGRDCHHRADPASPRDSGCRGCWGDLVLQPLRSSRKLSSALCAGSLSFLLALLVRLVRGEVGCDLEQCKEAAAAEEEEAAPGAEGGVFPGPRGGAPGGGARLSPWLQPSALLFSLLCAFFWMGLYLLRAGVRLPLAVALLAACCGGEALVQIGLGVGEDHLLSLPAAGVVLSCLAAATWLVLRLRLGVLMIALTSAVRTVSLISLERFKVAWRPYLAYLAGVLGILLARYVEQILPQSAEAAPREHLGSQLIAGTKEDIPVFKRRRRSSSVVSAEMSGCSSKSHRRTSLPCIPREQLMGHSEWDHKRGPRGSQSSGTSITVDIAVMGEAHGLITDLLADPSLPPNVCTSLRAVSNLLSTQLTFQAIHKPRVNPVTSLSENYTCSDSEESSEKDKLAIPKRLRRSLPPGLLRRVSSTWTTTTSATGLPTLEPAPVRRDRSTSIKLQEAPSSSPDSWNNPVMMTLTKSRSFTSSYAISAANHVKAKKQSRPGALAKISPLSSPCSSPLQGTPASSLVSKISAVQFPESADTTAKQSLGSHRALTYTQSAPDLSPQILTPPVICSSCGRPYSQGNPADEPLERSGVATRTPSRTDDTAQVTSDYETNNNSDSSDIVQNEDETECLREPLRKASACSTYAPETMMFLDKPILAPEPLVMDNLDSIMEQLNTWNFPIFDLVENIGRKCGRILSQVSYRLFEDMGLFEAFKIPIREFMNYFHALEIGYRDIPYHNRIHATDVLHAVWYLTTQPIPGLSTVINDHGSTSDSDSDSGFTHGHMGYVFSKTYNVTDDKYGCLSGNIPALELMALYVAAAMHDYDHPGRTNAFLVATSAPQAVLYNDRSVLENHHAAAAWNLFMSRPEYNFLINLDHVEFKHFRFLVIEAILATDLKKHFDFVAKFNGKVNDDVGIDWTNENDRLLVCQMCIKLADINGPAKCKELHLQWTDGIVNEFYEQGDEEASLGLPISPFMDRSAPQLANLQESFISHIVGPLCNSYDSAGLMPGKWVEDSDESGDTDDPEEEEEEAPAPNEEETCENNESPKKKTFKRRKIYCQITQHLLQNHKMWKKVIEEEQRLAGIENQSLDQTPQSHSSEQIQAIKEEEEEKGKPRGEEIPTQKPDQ
Assay [5] addresses cGMP-specific 3',5'-cyclic phosphodiesterase (Homo sapiens, UniProt O76074). As to the kind of experiment: Inhibition of his-tagged recombinant human PDE5A catalytic domain (E535 to Q860 residues) expressed in Escherichia coli BL21(DE3) using [3H]-cGMP as substrate incubated for 10 mins by SPA assay.
Assay [6] concerns the target Cone cGMP-specific 3',5'-cyclic phosphodiesterase subunit alpha' (Homo sapiens, UniProt P51160). As to the kind of experiment: Inhibition of full-length recombinant human PDE6C using [3H]-cGMP as substrate incubated for 10 mins by SPA assay.
For assay [7], the target named is High affinity 3',5'-cyclic-AMP phosphodiesterase 7A (Homo sapiens, UniProt Q13946). As to the kind of experiment: Inhibition of his-tagged recombinant human PDE7A catalytic domain (S130 to S482 residues) expressed in Escherichia coli BL21(DE3) using [3H]-cAMP as substrate incubated for 10 mins by SPA assay.
Assay [8] deals with High affinity cAMP-specific and IBMX-insensitive 3',5'-cyclic phosphodiesterase 8A (Homo sapiens, UniProt O60658). The experiment in a line: Inhibition of full-length recombinant human PDE8A using [3H]-cAMP as substrate incubated for 10 mins by SPA assay.
High affinity cAMP-specific and IBMX-insensitive 3',5'-cyclic phosphodiesterase 8A, sequence (O60658 whole entry, the tested form may be a part): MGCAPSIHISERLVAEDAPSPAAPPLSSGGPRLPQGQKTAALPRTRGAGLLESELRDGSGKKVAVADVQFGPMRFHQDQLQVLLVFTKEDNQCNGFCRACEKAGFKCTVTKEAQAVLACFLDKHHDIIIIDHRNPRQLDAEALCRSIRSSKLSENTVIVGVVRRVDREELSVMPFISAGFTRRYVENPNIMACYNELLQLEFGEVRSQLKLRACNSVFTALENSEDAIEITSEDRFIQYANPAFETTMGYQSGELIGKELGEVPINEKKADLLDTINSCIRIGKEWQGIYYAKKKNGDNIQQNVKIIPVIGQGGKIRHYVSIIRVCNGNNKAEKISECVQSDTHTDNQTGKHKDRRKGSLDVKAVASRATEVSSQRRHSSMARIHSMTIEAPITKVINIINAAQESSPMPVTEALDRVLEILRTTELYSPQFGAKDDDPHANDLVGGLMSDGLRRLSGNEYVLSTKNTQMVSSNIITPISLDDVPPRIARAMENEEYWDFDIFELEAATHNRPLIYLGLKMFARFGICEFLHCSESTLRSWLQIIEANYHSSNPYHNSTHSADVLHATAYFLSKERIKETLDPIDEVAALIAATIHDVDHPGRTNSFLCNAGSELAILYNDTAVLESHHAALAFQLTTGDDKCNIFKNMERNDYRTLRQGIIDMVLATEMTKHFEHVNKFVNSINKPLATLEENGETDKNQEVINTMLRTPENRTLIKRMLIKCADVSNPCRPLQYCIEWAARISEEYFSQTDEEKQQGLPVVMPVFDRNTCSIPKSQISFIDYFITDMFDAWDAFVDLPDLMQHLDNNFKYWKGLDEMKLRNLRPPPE
Assay [9] concerns the target High affinity cGMP-specific 3',5'-cyclic phosphodiesterase 9A (Homo sapiens, UniProt O76083). As to the kind of experiment: Inhibition of his-tagged recombinant human PDE9A catalytic domain (P181 to K506 residues) expressed in Escherichia coli BL21(DE3) using [3H]-cGMP as substrate incubated for 10 mins by SPA assay.
Assay [10] deals with cAMP and cAMP-inhibited cGMP 3',5'-cyclic phosphodiesterase 10A (Homo sapiens, UniProt Q9Y233). The experiment in a line: Inhibition of his-tagged recombinant human PDE10A catalytic domain (S439 to A766 residues) expressed in Escherichia coli BL21(DE3) using [3H]-cAMP as substrate incubated for 10 mins by SPA assay.
cAMP and cAMP-inhibited cGMP 3',5'-cyclic phosphodiesterase 10A, sequence (Q9Y233 whole entry, the tested form may be a part): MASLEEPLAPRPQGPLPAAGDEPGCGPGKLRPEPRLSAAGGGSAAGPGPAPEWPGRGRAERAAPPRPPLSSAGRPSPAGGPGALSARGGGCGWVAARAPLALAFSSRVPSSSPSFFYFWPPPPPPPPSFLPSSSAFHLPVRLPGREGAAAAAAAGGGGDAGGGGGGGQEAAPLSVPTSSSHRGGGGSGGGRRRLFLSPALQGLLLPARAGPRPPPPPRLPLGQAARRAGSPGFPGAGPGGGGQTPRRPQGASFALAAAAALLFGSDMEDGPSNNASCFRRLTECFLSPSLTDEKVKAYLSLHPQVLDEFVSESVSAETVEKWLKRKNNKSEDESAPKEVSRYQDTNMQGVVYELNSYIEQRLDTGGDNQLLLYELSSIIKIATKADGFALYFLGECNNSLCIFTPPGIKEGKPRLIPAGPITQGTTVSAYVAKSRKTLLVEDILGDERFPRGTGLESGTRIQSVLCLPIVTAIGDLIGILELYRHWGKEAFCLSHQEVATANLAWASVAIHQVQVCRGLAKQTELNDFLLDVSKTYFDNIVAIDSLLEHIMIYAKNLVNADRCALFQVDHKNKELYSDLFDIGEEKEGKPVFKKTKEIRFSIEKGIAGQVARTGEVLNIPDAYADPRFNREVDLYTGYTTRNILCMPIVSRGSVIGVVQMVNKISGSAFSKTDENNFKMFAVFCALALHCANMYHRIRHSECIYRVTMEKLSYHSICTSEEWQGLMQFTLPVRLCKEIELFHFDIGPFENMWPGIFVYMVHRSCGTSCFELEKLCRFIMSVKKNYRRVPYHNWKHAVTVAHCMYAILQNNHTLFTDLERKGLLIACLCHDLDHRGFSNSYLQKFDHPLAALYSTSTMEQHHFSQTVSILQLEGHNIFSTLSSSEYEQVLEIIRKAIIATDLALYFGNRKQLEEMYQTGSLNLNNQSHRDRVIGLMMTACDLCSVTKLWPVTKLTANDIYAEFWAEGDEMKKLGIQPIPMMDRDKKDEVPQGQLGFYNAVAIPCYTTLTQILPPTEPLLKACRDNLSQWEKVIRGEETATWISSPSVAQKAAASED
Assay [11] addresses Dual 3',5'-cyclic-AMP and -GMP phosphodiesterase 11A (Homo sapiens, UniProt Q9HCR9). As to the kind of experiment: Inhibition of full-length recombinant human PDE11A using [3H]-cAMP as substrate incubated for 10 mins by SPA assay.
For another assay, the species on record is Homo sapiens. As to the kind of experiment: Selectivity index, ratio of IC50 for full-length recombinant human PDE6C using [3H]-cGMP as substrate to IC50 for his-tagged recombinant human PDE4D catalytic domain (T86 to S413 residues) expressed in Escherichia coli BL21(DE3) using [3H]-cAMP as substrate.
The target in assay [12] is T1, Dual specificity calcium/calmodulin-dependent 3',5'-cyclic nucleotide phosphodiesterase 1A. The experiment in a line: Inhibition of full-length recombinant human PDE1A using [3H]-cGMP as substrate at 1 uM incubated for 10 mins by SPA assay relative to control.
The target in assay [13] is T2, cGMP-dependent 3',5'-cyclic phosphodiesterase. The experiment in a line: Inhibition of full-length recombinant human PDE2A using [3H]-cGMP as substrate at 1 uM incubated for 10 mins by SPA assay relative to control.

Counter-ions that a name gives are not always drawn.

3',5'-cyclic-AMP phosphodiesterase 4D, sequence (Q08499 whole entry, the tested form may be a part): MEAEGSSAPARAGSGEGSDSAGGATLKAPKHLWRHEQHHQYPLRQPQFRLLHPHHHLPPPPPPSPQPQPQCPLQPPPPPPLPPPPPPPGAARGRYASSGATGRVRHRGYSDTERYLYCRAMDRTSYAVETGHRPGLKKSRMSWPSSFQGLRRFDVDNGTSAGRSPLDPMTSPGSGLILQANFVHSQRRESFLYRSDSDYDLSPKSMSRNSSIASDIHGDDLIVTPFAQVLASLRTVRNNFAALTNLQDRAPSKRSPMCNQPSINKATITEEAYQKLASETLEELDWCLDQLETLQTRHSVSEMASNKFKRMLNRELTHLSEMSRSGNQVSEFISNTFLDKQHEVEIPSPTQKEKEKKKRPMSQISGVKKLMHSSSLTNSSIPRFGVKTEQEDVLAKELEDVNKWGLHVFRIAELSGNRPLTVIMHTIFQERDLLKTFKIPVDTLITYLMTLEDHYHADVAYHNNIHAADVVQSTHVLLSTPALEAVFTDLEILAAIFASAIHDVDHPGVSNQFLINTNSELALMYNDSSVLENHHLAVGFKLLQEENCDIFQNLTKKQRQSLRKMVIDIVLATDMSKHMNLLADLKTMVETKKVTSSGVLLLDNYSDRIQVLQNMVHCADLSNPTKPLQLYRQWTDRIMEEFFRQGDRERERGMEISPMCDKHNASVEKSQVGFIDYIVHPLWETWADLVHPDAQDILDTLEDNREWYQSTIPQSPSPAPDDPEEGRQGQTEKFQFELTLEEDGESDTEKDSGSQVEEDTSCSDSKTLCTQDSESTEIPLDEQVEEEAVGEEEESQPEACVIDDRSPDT
High affinity cGMP-specific 3',5'-cyclic phosphodiesterase 9A, sequence (O76083 whole entry, the tested form may be a part): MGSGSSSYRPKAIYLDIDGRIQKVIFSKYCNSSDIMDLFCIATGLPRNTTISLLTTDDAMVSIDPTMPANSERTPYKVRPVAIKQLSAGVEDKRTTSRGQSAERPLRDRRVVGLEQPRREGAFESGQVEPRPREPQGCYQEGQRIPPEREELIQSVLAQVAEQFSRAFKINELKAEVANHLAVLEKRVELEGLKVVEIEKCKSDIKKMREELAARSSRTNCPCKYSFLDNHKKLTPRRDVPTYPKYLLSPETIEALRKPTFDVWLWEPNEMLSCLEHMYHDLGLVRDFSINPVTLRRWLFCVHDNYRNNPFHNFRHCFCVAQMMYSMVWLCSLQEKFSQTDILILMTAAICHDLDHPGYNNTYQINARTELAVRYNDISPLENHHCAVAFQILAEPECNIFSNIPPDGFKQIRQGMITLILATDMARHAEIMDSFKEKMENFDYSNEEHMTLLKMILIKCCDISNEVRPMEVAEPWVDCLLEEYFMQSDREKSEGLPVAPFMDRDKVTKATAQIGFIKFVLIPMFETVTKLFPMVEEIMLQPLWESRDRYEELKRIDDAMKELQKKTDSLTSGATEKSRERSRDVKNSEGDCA
T1 sequence (P54750 whole entry): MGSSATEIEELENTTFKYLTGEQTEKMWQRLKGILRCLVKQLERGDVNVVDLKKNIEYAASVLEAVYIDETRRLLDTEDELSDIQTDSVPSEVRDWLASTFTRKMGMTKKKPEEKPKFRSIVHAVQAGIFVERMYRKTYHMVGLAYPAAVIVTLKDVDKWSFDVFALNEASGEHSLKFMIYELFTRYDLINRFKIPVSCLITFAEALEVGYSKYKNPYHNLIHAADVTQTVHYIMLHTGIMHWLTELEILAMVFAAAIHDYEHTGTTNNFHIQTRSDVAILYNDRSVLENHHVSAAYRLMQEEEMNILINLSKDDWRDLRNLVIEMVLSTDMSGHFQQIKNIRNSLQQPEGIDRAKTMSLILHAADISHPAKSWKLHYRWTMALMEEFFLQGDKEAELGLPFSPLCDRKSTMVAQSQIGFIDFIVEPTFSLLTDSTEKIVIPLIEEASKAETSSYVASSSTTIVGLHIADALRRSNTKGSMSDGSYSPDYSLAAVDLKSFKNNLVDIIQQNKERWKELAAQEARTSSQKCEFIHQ

The term IC50 denotes the concentration that inhibits the measured activity by half. In the case of `CCOc1ccn(-c2ccc(F)cc2)c(=O)c1C(=O)Nc1ccc(Oc2ccnc(N)c2Cl)c(F)c1` [BMS-777607], the half-inhibitory concentration (IC50) in assay [1] stood at 2.46 µM.
On to `COc1ccc(CNc2nc(N(CCO)CCO)nc3c2[nH]c(=O)n3C(C)C)cc1`, for which the IC50 in [2] was greater than 10 µM; in assay [3], greater than 1 µM; in assay [4], greater than 10 µM; in [1] it was 1.78 µM; in assay [5], 0.04 µM; in [6], 0.09 µM. For the same compound, the IC50 in [7], in assay [8], in assay [9], in assay [10] and in assay [11] was greater than 10 µM throughout. The Ratio IC50 in the assay listed under Homo sapiens came to 2.
Take `COc1ccc2c(c1)CC[C@H]1[C@H]3CC[C@H](NCCCCCCN4C(=O)C=CC4=O)[C@@]3(C)CC[C@@H]21`: the 50% inhibitory concentration (IC50) in assay [1] amounted to 0.94 µM.
As to `O=C(O)c1ccc2c(c1)nc(Nc1cccc(Cl)c1)c1ccncc12` [SILMITASERTIB], the IC50 in assay [1] was determined as 1 µM.
One may read the inhibition as the drop in the measured response relative to a control, in per cent. In the case of `COc1ccc(CNc2nc(N(CCO)CCO)nc3c2cnn3C(C)C)cc1`, the 50% inhibitory concentration (IC50) was greater than 1 µM in [4]; 2.25 µM in [1]; 0.12 µM in [5]; 0.16 µM in [6]; greater than 10 µM in assay [7]; greater than 10 µM in assay [8]. For the same compound, the results for the 50% inhibitory concentration (IC50) in assay [9], in assay [10] and in assay [11] were greater than 10 µM, greater than 1 µM and greater than 10 µM, respectively. In addition, the inhibition in [12] came to 59.6%; in assay [13] it was 67.9%. The Ratio IC50 in the assay filed under Homo sapiens was 1.
Take `COc1ncc(-c2ccc3nccc(-c4ccnnc4)c3c2)cc1NS(=O)(=O)c1ccc(F)cc1F` [OMIPALISIB]: in [1], the half-inhibitory concentration (IC50) is 1.77 µM.
The same measure, in the same setting: next, `CCOc1ccc(Cc2nccc3cc(OCC)c(OCC)cc23)cc1OCC` [ETHAVERINE HYDROCHLORIDE]: 0.41 µM.
Same read-out and setting: under `Cn1cc(-c2ccncc2)c(-c2ccc(OCc3ccc4ccccc4n3)cc2)n1` [MARDEPODECT] stands 1.74 µM.
Turning to `COc1ccc(CNc2nc(N(CCO)CCO)nc3c2ncn3C(C)C)cc1`, the half-maximal inhibitory concentration (IC50) in assay [2] is greater than 1 µM; in [3], greater than 1 µM; in assay [4] it was greater than 10 µM; in assay [1], 0.42 µM; in [5], 0.23 µM; in [7], greater than 10 µM. For the same compound, the 50% inhibitory concentration (IC50) in assay [8] is greater than 10 µM; in [9], greater than 10 µM; in [10], 1.29 µM; in assay [11], greater than 1 µM.
